{"source": "patent US11583507B2", "about": "“Direct AMPK activator compounds” (SOCIETE DES PRODUITS NESTLE S.A., priority 2018, dated 2023)", "key": {"C2C12 AMPKα1α2+/+ cells": {"tested_on": "C2C12 AMPKα1α2+/+ cells", "experiment": "Glucose uptake (3H-2-deoxyglucose) in differentiated C2C12 AMPKα1α2+/+ cells", "assay_type": "cell-based, murine", "excerpt": "C2C12 AMPK α1α2 double knockout cell lines were generated by transient transfection of wild type cells with plasmids containing Cas9 enzyme linked to green fluorescent protein expression and Cas9 guide RNA sequences targeting the murine AMPK α1 subunit (sc-430618, SantaCruz) and the murine AMPK α2 subunit (sc-430803, SantaCruz). Cells positive for green fluorescent protein expression were single cell sorted by flow cytometry into 96-well plates containing growth medium and analysed for loss of AMPK signaling following expansion of the clones.\nDifferentiated C2C12 AMPKα1α2+/+ and AMPKα1α2−/− cells were treated with either vehicle (0.2% DMSO), 30 μM or 100 μM Lusianthridin for 1 h at 37° C. […] Finally, differentiated C2C12 AMPKα1α2+/+ and AMPKα1α2−/− cells were treated with either vehicle (0.2% DMSO) or 100 μM Lusianthridin in the presence or absence of 15 nM Wortmanin for 1 h at 37° C. For the Wortmanin experiments, differentiated C2C12 cells were pre-incubated with DMSO or Wortmanin for 1 h prior to treatment.\nGlucose uptake was determined by monitoring the uptake of 3H-2-deoxyglucose into cells. C2C12 AMPKα1α2+/+ and AMPKα1α2−/− cells were maintained in DMEM GlutaMAX supplemented with 20% (vol/vol) FBS and 100 U/ml penicillin G, and 100 μg/ml streptomycin. […] Cells were lysed and the quantity of ^3H determined in these samples using a scintillation counter."}, "[1]": {"tested_on": "AMPK β1 S108A mutant (phosphorylation of ACC)", "experiment": "pACC (HTRF and western blot) in AMPKβ1/β2 double knockout U2-OS Flp-In T-Rex cells stably expressing β1 S108A mutant", "assay_type": "cell-based, human", "excerpt": "(§1) AMPKβ1/β2 double knockout U2-OS Flp-In™ T-Rex™ cell lines were generated by Horizon Discovery (Cambridge, UK). Cells were genotyped and analysed by western blotting to confirm that there was a complete knockout of AMPKβ1/β2. We took these AMPKβ1/β2 double knockout cells, and re-introduced the expression of human β1 wild-type (WT) or a β1 Serine 108 to alanine mutation (S108A). This was achieved using the Flp-In™ system (Invitrogen) present in this cell line and stable cells expressing β1 WT or a β1 S108A mutant were generated according to the manufacturers' protocols. Re-expression of the β1 subunit was confirmed by western blot analysis.\n(§2) Cells stably expressing β1 WT or a β1 S108A mutant were treated with varying concentrations of Lusianthridin and subjected to the pACC HTRF (Cisbio) assay or western blot analysis to determine phosphorylation of the AMPK substrate, ACC, in cells lysates. Western blots were quantified using the LI-COR odyssey system and shown as the ratio of the antibody signal from pACC divided by total ACC."}, "[2]": {"tested_on": "AMPK β1 WT (phosphorylation of ACC)", "experiment": "pACC (HTRF and western blot) in AMPKβ1/β2 double knockout U2-OS Flp-In T-Rex cells stably expressing β1 WT", "assay_type": "cell-based, human", "excerpt": "as §1, §2"}, "primary hepatocytes": {"tested_on": "primary hepatocytes", "experiment": "Lipogenesis ([1-14C]-acetate incorporation into fatty acids) in primary hepatocytes", "assay_type": "cell-based, mouse", "conditions": "1 h at 37 C, varying concentrations", "description": "Hepatocyte isolation: The liver was first perfused with 50 ml perfusion buffer (Krebs-Hepes buffer with […] EDTA), followed with 50 ml collagenase A buffer (Krebs-Hepes buffer with 5 mM CaCl2 and 0.5 mg/ml collagenase). […] Hepatocytes were left to attach (3-4 h) and cultured overnight in M199 supplemented with antibiotics and 100 nM dexamethasone. Cells were used for experiments the following morning. For primary hepatocyte isolation see Example 4. For lipogenesis measurements in primary hepatocytes, cells were seeded at 600 K cells per well in a 6-well plate overnight. Media was replaced with fresh M199 media alone for 2 hours prior to incubation with varying concentrations of Lusianthridin for 1 h at 37 C, in the presence of [1-^14C]-acetate. The incorporation of [^14C] into fatty acids was determined in the lower organic layer after separation from the aqueous phase. […] Lipogenesis is controlled by the AMPK substrate ACC, and phosphorylation and inhibition of ACC by AMPK, leads to a decrease in lipogenesis. Lipogenesis was measured in primary hepatocytes by determining the incorporation of ^14C-labelled acetate into fatty acids. Lipogenesis was monitored in the presence or absence of varying concentrations of Lusianthridin for 1 h at 37 C. […] This observation is consistent with its ability to activate AMPK in hepatocytes, which leads to the phosphorylation and inhibition of ACC."}, "AMPK α2β2γ1 (221)": {"target": "T1, AMPK α2β2γ1 (221) (Homo sapiens, UniProt O43741+P54619+P54646)", "T1 construct": "His; made in house; host or cells: bacteria", "T1 sequence (P54646 whole entry)": "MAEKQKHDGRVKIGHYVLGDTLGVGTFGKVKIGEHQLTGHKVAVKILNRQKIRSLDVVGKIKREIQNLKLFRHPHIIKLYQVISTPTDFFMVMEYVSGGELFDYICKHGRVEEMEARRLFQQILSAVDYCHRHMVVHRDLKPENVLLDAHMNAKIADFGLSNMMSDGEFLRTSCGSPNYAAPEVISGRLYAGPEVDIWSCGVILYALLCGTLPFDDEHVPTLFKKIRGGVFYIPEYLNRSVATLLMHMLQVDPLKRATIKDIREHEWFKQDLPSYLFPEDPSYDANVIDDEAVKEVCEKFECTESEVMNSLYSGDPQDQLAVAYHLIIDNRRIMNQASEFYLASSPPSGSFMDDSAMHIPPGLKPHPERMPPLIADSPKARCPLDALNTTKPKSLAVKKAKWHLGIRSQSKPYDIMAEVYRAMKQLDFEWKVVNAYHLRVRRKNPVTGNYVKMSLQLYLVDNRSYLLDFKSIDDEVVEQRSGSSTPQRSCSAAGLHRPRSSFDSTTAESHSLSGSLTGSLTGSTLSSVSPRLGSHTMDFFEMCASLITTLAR", "T1 sequence (O43741 whole entry)": "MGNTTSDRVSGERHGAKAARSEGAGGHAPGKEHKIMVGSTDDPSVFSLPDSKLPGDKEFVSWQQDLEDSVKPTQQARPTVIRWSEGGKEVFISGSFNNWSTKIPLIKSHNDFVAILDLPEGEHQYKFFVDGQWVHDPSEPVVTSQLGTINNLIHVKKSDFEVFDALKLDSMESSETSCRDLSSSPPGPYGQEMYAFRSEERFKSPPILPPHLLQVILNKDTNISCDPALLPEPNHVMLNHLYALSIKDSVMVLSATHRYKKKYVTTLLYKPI", "T1 sequence (P54619 whole entry)": "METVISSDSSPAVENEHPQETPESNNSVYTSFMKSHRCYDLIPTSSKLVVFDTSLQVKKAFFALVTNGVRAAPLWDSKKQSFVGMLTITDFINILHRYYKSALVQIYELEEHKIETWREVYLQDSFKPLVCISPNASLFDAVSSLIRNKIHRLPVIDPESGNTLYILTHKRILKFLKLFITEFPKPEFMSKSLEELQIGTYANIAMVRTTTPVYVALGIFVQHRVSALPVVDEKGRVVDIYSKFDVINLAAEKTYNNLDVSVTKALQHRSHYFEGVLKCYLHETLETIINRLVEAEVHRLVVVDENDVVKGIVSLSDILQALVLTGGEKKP", "experiment": "AMPK in vitro activity assay (HTRF-KinEASE), β2-containing complex", "assay_type": "biochemical", "conditions": "fold activation vs complex without compound", "description": "Lusianthridin (CAS 87530-30-1) was isolated from Thunia alba fruit. It was sourced from Analyticon (NP-012362). The plant was purchased through Analyticon's biomaterial supplier in 2003. The country of origin is Nepal. The AMPK heterotrimers were expressed in bacteria and purified through the His-α subunit by nickel purification. AMPK complexes were purified through gel filtration and phosphorylated by incubation with CaMKKβ, and further purified with a final gel filtration purification step. Phosphorylated purified AMPK was incubated with varying concentrations of ligand for 30 mins using substrate and reagents from the HTRF-KinEASE Cisbio assay kit (STK S1 Kit). Phosphorylation of the substrate was measured by incubating with donor and acceptor antibodies for 2 h at room temperature as per the manufacturer's protocol (and Coulerie et al., (2016) PMID: 27792327) and phosphorylated peptide detected by performing HTRF. The 665 nm/620 nm ratio was determined and the results are plotted as fold activation compared to the respective AMPK complex without any compound."}, "AMPK substrate, ACC": {"tested_on": "AMPK substrate, ACC", "experiment": "pACC HTRF assay in mouse primary hepatocytes", "assay_type": "cell-based", "conditions": "1 h incubation at 37 C, dose-dependent", "description": "Hepatocyte isolation: The liver was first perfused with 50 ml perfusion buffer (Krebs-Hepes buffer with […] EDTA), followed with 50 ml collagenase A buffer (Krebs-Hepes buffer with 5 mM CaCl2 and 0.5 mg/ml collagenase). […] Hepatocytes were left to attach (3-4 h) and cultured overnight in M199 supplemented with antibiotics and 100 nM dexamethasone. Cells were used for experiments the following morning. Primary hepatocytes were seeded at 15 K cells in a 96-well plate overnight. Cells were treated for 1 h with varying concentrations of Lusianthridin in media and then cells were lysed in 50 μl of Cisbio lysis buffer #1 supplemented with blocking solution as per the manufacturer's protocol (Cisbio). Cells were lysed for 30 mins at room temperature before 16 μl of lysate was incubated with 4 μl of the HTRF antibodies. Lysates were incubated overnight with the antibody before 665 nm/620 nm ratio was determined using a MolecularDevices i3 plate reader (with a HTRF cartridge add-on)."}, "[3]": {"conditions": "varying concentrations, 30 mins at 37 C"}}}
{"smiles": "COc1cc(O)c2c(c1)CCc1cc(O)ccc1-2", "note": "[Lusianthridin, 7-Methoxy-9,10-dihydrophenanthrene-2,5-diol]", "values": [{"measurement": "glucose uptake (fold change relative to control)", "setting": "C2C12 AMPKα1α2+/+ cells; C2C12 AMPKα1α2+/+, 30 or 100 μM Lusianthridin, 300 nM Insulin, 1 h at 37° C", "value": "increase in glucose uptake"}, {"measurement": "effect of Wortmanin on stimulated glucose uptake", "setting": "C2C12 AMPKα1α2+/+ cells; in the presence of 15 nM Wortmanin (1 h pre-incubation), 100 μM Lusianthridin or 300 nM Insulin, 1 h", "value": "no effect"}, {"measurement": "phosphorylation of ACC (western blot)", "setting": "[1]", "value": "did not increase phosphorylation of ACC"}, {"measurement": "pACC (HTRF assay)", "setting": "[1]; [3]", "value": "did not increase pACC"}, {"measurement": "pACC (HTRF and western blot, pACC/total ACC)", "setting": "[2]; FIGS. 19 and 20", "value": "dose-dependently increase pACC"}, {"measurement": "pACC (HTRF assay)", "setting": "[2]; [3]", "value": "capable of activating"}, {"measurement": "rate of lipogenesis (DPM per μg of protein)", "setting": "primary hepatocytes", "value": "inhibit lipogenesis in a dose-dependent manner"}, {"measurement": "activation of β2-containing AMPK complexes (α2β2γ1)", "setting": "AMPK α2β2γ1 (221)", "value": "does not activate"}, {"measurement": "phosphorylation of the AMPK substrate ACC (pACC HTRF)", "setting": "AMPK substrate, ACC", "value": "increases"}]}
